These compounds were tested against T1, Recombinant human TPH1 (MBP tagged) (Homo sapiens, UniProt P17752) (assay: TPH1 in vitro inhibition assay (kinetic fluorescence)). Settings: TPH1 Range (TPH1 inhibition IC50).
T1 construct: cloning full length human TPH1 cDNA in to a bacterial pMAL-c5E expression vector; made in house; host or cells: E. coli BL21 (DE3)
T1 sequence (P17752 1-444): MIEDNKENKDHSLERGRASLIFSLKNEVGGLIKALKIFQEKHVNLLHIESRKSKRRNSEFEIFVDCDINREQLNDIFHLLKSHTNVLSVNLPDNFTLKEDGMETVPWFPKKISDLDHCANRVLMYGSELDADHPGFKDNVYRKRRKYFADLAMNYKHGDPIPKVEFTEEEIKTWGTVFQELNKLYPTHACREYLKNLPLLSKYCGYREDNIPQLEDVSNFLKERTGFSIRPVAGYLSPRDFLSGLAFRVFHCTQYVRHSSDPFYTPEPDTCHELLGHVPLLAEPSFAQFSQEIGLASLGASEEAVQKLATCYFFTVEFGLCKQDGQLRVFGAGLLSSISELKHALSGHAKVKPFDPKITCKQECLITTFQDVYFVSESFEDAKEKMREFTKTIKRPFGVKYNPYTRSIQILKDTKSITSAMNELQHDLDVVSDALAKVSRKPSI
Assay type: biochemical
Procedure, shortened: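 Final mix: 15 nM MBP-TPH1, 30 μM Trp, 36 μM 6-methyltetrahydropterin, 25 μM ferrous ammonium sulfate, 50 mM MES pH 7.1, 1% DMSO, room temperature.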

Row | Compound | IC50 [nM]
1 | Nc1nc(O[C@H](c2ccc(Cl)cc2-c2cccc(C(F)(F)F)c2)C(F)(F)F)cc(N2CCC3(CC2)CN[C@H](C(=O)O)C3)n1 [Example 34q, (S)-8-(2-amino-6-((R)-1-(5-chloro-3′-(trifluoromethyl)-[1,1′-biphenyl]-2-yl)-2,2,2-trifluoroethoxy)pyrimidin-4-yl)-2,8-diazaspiro[4.5]decane-3-carboxylic acid] | < 50
2 | Nc1nc(O[C@H](c2ccc(Cl)cc2-c2cccc(Cl)c2)C(F)(F)F)cc(N2CCC3(CC2)CN[C@H](C(=O)O)C3)n1 [Example 34a, (S)-8-(2-amino-6-((R)-1-(3′,5-dichloro-[1,1′-biphenyl]-2-yl)-2,2,2-trifluoroethoxy)pyrimidin-4-yl)-2,8-diazaspiro[4.5]decane-3-carboxylic acid] | < 50

Same assay, conditions: read-out: TPH1 Range (TPH1 inhibition IC50)

Row | Compound | IC50 [nM]
3 | CC(C)c1cc(-c2cc(Cl)ccc2[C@@H](Oc2cc(N3CCC4(CC3)CN[C@H](C(=O)O)C4)nc(N)n2)C(F)(F)F)ccn1 [Example 34bu, (S)-8-(2-amino-6-((R)-1-(4-chloro-2-(2-isopropylpyridin-4-yl)phenyl)-2,2,2-trifluoroethoxy)pyrimidin-4-yl)-2,8-diazaspiro[4.5]decane-3-carboxylic acid] | 50 to 300
4 | Cc1ccn(-c2cc(-c3ccc(C(C)(C)C)cc3)ccc2[C@@H](Oc2cc(N3CCC4(CC3)CN[C@H](C(=O)O)C4)nc(C)n2)C(F)(F)F)n1 [Example 29r, (S)-8-(6-((R)-1-(4′-(tert-butyl)-3-(3-methyl-1H-pyrazol-1-yl)-[1,1′-biphenyl]-4-yl)-2,2,2-trifluoroethoxy)-2-methylpyrimidin-4-yl)-2,8-diazaspiro[4.5]decane-3-carboxylic acid] | < 50
5 | Cc1ccn(-c2cc(-c3cccc(C(=O)O)c3)ccc2[C@@H](Oc2cc(N3CCC4(CC3)CN[C@H](C(=O)O)C4)nc(N)n2)C(F)(F)F)n1 [Example 1d, (S)-8-(2-amino-6-((R)-1-(3′-carboxy-3-(3-methyl-1H-pyrazol-1-yl)-[1,1′-biphenyl]-4-yl)-2,2,2-trifluoroethoxy)pyrimidin-4-yl)-2,8-diazaspiro[4.5]decane-3-carboxylic acid] | < 50
6 | Nc1nc(O[C@H](c2ccc(-c3ccncc3)cc2)C(F)(F)F)cc(N2CCC3(CC2)CN[C@H](C(=O)O)C3)n1 [Example 55ax, (S)-8-(2-amino-6-((R)-2,2,2-trifluoro-1-(4-(pyridin-4-yl)phenyl)ethoxy)pyrimidin-4-yl)-2,8-diazaspiro[4.5]decane-3-carboxylic acid] | 50 to 300
7 | Cc1ccn(-c2cc(Cl)ccc2[C@@H](Oc2cnnc(N3CCC4(CC3)CN[C@H](C(=O)O)C4)c2)C(F)(F)F)n1 [Example 43, (S)-8-(5-((R)-1-(4-chloro-2-(3-methyl-H-pyrazol-1-yl)phenyl)-2,2,2-trifluoroethoxy)pyridazin-3-yl)-2,8-diazaspiro[4.5]decane-3-carboxylic acid] | 3000 to 10000
8 | Nc1nc(O[C@H](c2ccc(-c3ccc4[nH]c(=O)ccc4c3)cc2)C(F)(F)F)cc(N2CCC3(CC2)CN[C@H](C(=O)O)C3)n1 [Example 55t, (S)-8-(2-amino-6-((R)-2,2,2-trifluoro-1-(4-(2-oxo-1,2-dihydroquinolin-6-yl)phenyl)ethoxy)pyrimidin-4-yl)-2,8-diazaspiro[4.5]decane-3-carboxylic acid] | 50 to 300
9 | Cc1ccn(-c2cc(-c3cccc(C#N)c3)ccc2[C@@H](Oc2cc(N3CCC4(CC3)CN[C@H](C(=O)O)C4)nc(N)n2)C(F)(F)F)n1 [Example 1w, (S)-8-(2-amino-6-((R)-1-(3′-cyano-3-(3-methyl-1H-pyrazol-1-yl)-[1,1′-biphenyl]-4-yl)-2,2,2-trifluoroethoxy)pyrimidin-4-yl)-2,8-diazaspiro[4.5]decane-3-carboxylic acid] | < 50
10 | Nc1nc(NCc2cccc(-c3ccccc3)c2)nc(N2CCC3(CC2)CNC(C(=O)O)C3)n1 (stereo not shown) [Example 39d, 8-(4-(([1,1′-biphenyl]-3-ylmethyl)amino)-6-amino-1,3,5-triazin-2-yl)-2,8-diazaspiro[4.5]decane-3-carboxylic acid] | 3000 to 10000
11 | Nc1nc(O[C@H](c2ccc(Cl)cc2-c2cc(Cl)cc(C(F)(F)F)c2)C(F)(F)F)cc(N2CCC3(CC2)CN[C@H](C(=O)O)C3)n1 [Example 34ap, (S)-8-(2-amino-6-((R)-1-(3′,5-dichloro-5′-(trifluoromethyl)-[1,1′-biphenyl]-2-yl)-2,2,2-trifluoroethoxy)pyrimidin-4-yl)-2,8-diazaspiro[4.5]decane-3-carboxylic acid] | 50 to 300
12 | Cc1ccn(-c2cc(-c3ccc(C)c(Cl)c3)ccc2[C@@H](Oc2cc(N3CCC4(CC3)CN[C@H](C(=O)O)C4)nc(N)n2)C(F)(F)F)n1 [Example 1bp, (S)-8-(2-amino-6-((R)-1-(3′-chloro-4′-methyl-3-(3-methyl-1H-pyrazol-1-yl)-[1,1′-biphenyl]-4-yl)-2,2,2-trifluoroethoxy)pyrimidin-4-yl)-2,8-diazaspiro[4.5]decane-3-carboxylic acid] | < 50
13 | Cc1cc(-c2cc(Cl)ccc2[C@@H](Oc2cc(N3CCC4(CC3)CN[C@H](C(=O)O)C4)nc(N)n2)C(F)(F)F)cc(C(C)(C)C)c1 [Example 34bm, (S)-8-(2-amino-6-((R)-1-(3′-(tert-butyl)-5-chloro-5′-methyl-[1,1′-biphenyl]-2-yl)-2,2,2-trifluoroethoxy)pyrimidin-4-yl)-2,8-diazaspiro[4.5]decane-3-carboxylic acid] | 50 to 300
14 | Cc1ccn(-c2ccc(-c3ccc(/C=C/C(=O)O)cc3)cc2[C@@H](Oc2cc(N3CCC4(CC3)CN[C@H](C(=O)O)C4)nc(N)n2)C(F)(F)F)n1 [Example 19i, (S)-8-(2-amino-6-((R)-1-(4′-((E)-2-carboxyvinyl)-4-(3-methyl-1H-pyrazol-1-yl)-[1,1′-biphenyl]-3-yl)-2,2,2-trifluoroethoxy)pyrimidin-4-yl)-2,8-diazaspiro[4.5] decane-3-carboxylic acid] | < 50
15 | Cc1ccc(-c2ccc([C@@H](Oc3cc(N4CCC5(CC4)CN[C@H](C(=O)O)C5)nc(N)n3)C(F)(F)F)c(-c3cccc(S(C)(=O)=O)c3)c2)cc1C [Example 52a, (S)-8-(2-Amino-6-((R)-1-(3,4-dimethyl-3″-(methylsulfonyl)-[1,1′:3′,1″-terphenyl]-4′-yl)-2,2,2-trifluoroethoxy)pyrimidin-4-yl)-2,8-diazaspiro[4.5]decane-3-carboxylic acid] | < 50
16 | Cc1ccn(-c2cc(-c3cccc(F)c3)ccc2[C@@H](Oc2cc(N3CCC4(CC3)CN[C@H](C(=O)O)C4)nc(N)n2)C(F)(F)F)n1 [Example 1ac, (S)-8-(2-amino-6-((R)-2,2,2-trifluoro-1-(3′-fluoro-3-(3-methyl-1H-pyrazol-1-yl)-[1,1′-biphenyl]-4-yl)ethoxy)pyrimidin-4-yl)-2,8-diazaspiro[4.5]decane-3-carboxylic acid] | < 50
17 | COc1ccc(-c2ccc([C@@H](Oc3cc(N4CCC5(CC4)CN[C@H](C(=O)O)C5)nc(C)n3)C(F)(F)F)c(-n3ccc(C)n3)c2)cc1F [Example 29l, (S)-8-(2-methyl-6-((R)-2,2,2-trifluoro-1-(3′-fluoro-4′-methoxy-3-(3-methyl-1H-pyrazol-1-yl)-[1,1′-biphenyl]-4-yl)ethoxy)pyrimidin-4-yl)-2,8-diazaspiro[4.5]decane-3-carboxylic acid] | < 50
18 | (S)-8-(2-Amino-6-((4-(3-methyl-H-indazol-6-yl)phenoxy)methyl)pyrimidin-4-yl)-2,8-diazaspiro[4.5]decane-3-carboxylic acid [Example 61] | 50 to 300
19 | Cc1ccn(-c2cc(-c3cccc(C(F)(F)F)c3)ccc2[C@@H](Oc2cc(N3CCC4(CC3)CN[C@H](C(=O)O)C4)nc(N)n2)C(F)(F)F)n1 [Example 1am, (S)-8-(2-amino-6-((R)-2,2,2-trifluoro-1-(3-(3-methyl-1H-pyrazol-1-yl)-3′-(trifluoromethyl)-[1,1′-biphenyl]-4-yl)ethoxy)pyrimidin-4-yl)-2,8-diazaspiro[4.5]decane-3-carboxylic acid] | < 50
20 | Cc1ccn(-c2ccc(/C=C/C(=O)O)cc2[C@@H](Oc2cc(N3CCC4(CC3)CN[C@H](C(=O)O)C4)nc(N)n2)C(F)(F)F)n1 [Example 19d, (S)-8-(2-amino-6-((R)-1-(5-((E)-2-carboxyvinyl)-2-(3-methyl-1H-pyrazol-1-yl)phenyl)-2,2,2-trifluoroethoxy)pyrimidin-4-yl)-2,8-diazaspiro[4.5]decane-3-carboxylic acid] | 50 to 300
21 | CCOC(=O)c1ccc(-c2ccc([C@@H](Oc3cc(N4CCC5(CC4)CN[C@H](C(=O)O)C5)nc(C)n3)C(F)(F)F)c(-n3ccc(C)n3)c2)cc1 [Example 29i, (S)-8-(6-((R)-1-(4′-(ethoxycarbonyl)-3-(3-methyl-1H-pyrazol-1-yl)-[1,1′-biphenyl]-4-yl)-2,2,2-trifluoroethoxy)-2-methylpyrimidin-4-yl)-2,8-diazaspiro[4.5]decane-3-carboxylic acid] | < 50
22 | COc1cc(-c2ccc([C@@H](Oc3cc(N4CCC5(CC4)CN[C@H](C(=O)O)C5)nc(N)n3)C(F)(F)F)cc2)cc(C(F)(F)F)c1 [Example 55z, (S)-8-(2-amino-6-((R)-2,2,2-trifluoro-1-(3′-methoxy-5′-(trifluoromethyl)-[1,1′-biphenyl]-4-yl)ethoxy)pyrimidin-4-yl)-2,8-diazaspiro[4.5]decane-3-carboxylic acid] | 50 to 300
